The values below come from US11930812B2, “Coating materials for seeds and for particulate materials, including fertilizers” (ADVANCED BIOLOGICAL MARKETING, INC., priority 2017, dated 2024).

The test system of data set [1] is corn. The experiment in a line: Corn seedling size after seed or urea fertilizer treatment with cyclodextrin/6PP. Type of data set: in vivo. To be noted: cyclodextrin formulation; 0.2, 2 and 20 μl/seed or μl/g of urea fertilizer; plants about 15 days old; FIG. 4. As for the experimental part:
FIG. 4 illustrates corn seedling size following seed treatments at 0 (CO), 0.2, 2 and 20 μl/seed or of fertilizer with cyclodextrin/6PP at 0 (CO), 0.2, 2 and 20 μl/g of urea fertilizer. Plants were about 15 days old and bars with dissimilar letters denote statistical differences at P=0.01. The formulation systems designated here can be used with many other triggering compounds, signal molecules, or substances. In FIG. 4 is shown data on 6-pentyl pyrone (6PP) used with the same cyclodextrin formulation described above for use with 1-octen-3-ol. 6PP is effective in this use.

Data set [2] deals with corn. The experiment in a line: Corn root development in PVC tubes in natural field soil after seed treatment. The class given is in vivo. To be noted: seed treated with 0.7 μl; corn maturity, 3 months after application; PVC tubes about 4 M long; FIG. 1A. As for the experimental part:
In the roots produced in field soil in PVC pipes, adequate water was applied throughout the growing season. Conversely, in the field trial shown in FIG. 1, the plants were subject to severe drought, according to official weather service notices. In both cases, the growth of roots was much greater when produced from seeds treated with the chemical. […] Turning to FIG. 1 in detail, pictured are the development of corn roots from seeds not treated (left) or treated with 0.7 μl of 1-octen-3-ol (right) at the time of corn maturity (that is, 3 months after application of octenol). In FIG. 1A, plants were grown in PVC tubes about 4 M long in natural field soil, and the treated seeds produced roots that exceeded the control by about 50%. Length of roots are indicated in meters (M) by the scale at right.

The conditions of data set [3]: moderate toxicity; cited from earlier work.
Data set [4] has as its system corn. The experiment in a line: Corn root length in field grown plants (back hoe trench) after seed treatment. Type of data set: in vivo. Conditions: seed treatment 0.7 μl, severe drought, control root 30 cm, FIG. 1B. An excerpt:
In the roots produced in field soil in PVC pipes, adequate water was applied throughout the growing season. Conversely, in the field trial shown in FIG. 1, the plants were subject to severe drought, according to official weather service notices. In both cases, the growth of roots was much greater when produced from seeds treated with the chemical. […] When grown in the field, that is, in a setting where maximum root length was not impeded by the experiment itself, a similar or better result obtained. In FIG. 1B, roots were exposed in field grown plants with a back hoe trench and photographed. The images were adjusted so that the root volume in each is proportionally sized. In the control shown the root was 30 cm long, and with the treatment the root was 78 cm long to deepest part of the root visible.

Data set [5] deals with corn. The experiment in a line: Field trials of seed treatment, early-season flooding stress. Conditions: seed treatment 0.7 μl/seed. The class given is in vivo.
The subject of data set [6] is powdery mildew. The experiment in a line: Powdery mildew from natural infection in field-grown squash after seed treatment. Type of data set: in vivo. Conditions: seed treatment about 0.7 μl, differences significant at P=0.01, FIG. 2D. How it is done:
(§1) Turning to FIG. 2 in detail, pictured are long-term effects of 1-octen-3-ol (represented as the designation “Omega” on the chart) on yields of corn, yield increases in squash and control of powdery mildew on squash. Treatments in every case were seed treatments with about 0.7 μl of 1-octen-3-ol. […] FIGS. 2C and 2D show yield differences and disease resistance, as indicated by occurrence of powdery mildew from natural infection in field-grown squash following the same seed treatment protocol as above. The differences shown are significant at P=0.01. The yields are weights of fruit/ac. The powdery mildew disease rating is 0=no disease, 1=1 lesion/leaf, 2=2 lesions/leaf and 3=3 lesions per leaf.

Data set [7] concerns corn. The data set is described as follows: Corn field trials 2015, yields after seed treatment. The class given is in vivo. Conditions: seed treatment about 0.7 μl, 2-3 months post-planting. As for the experimental part: Turning to FIG. 2 in detail, pictured are long-term effects of 1-octen-3-ol (represented as the designation “Omega” on the chart) on yields of corn, yield increases in squash and control of powdery mildew on squash. Treatments in every case were seed treatments with about 0.7 μl of 1-octen-3-ol. […] FIGS. 2A and 2B show yields of corn in field trials, 2015.

Data set [8] deals with squash. The experiment in a line: Field-grown squash yield after seed treatment. The class given is in vivo. Conditions: seed treatment about 0.7 μl; differences significant at P=0.01; FIG. 2C. As for the experimental part: as §1

In the case of `CCCCCc1cccc(=O)o1` [6PP, 6-pentyl pyrone], the corn seedling size entry in data set [1] is listed as “effective”.

Take `C=CC(O)CCCCC` (stereo not drawn) [1-octen-3-ol]: the “roots exceeding the control” value in data set [2] is reported as “about 50%”. Besides, the “LD 50” value in data set [3] is on record as 340 mg/kg. Besides, in data set [4], the “root length to deepest part of the root visible” value is 78 cm. For the same compound, in data set [5], the “resistance to flooding stress” value is “resistance to early-season flooding stress”. Also, the “disease resistance (powdery mildew disease rating)” value in data set [6] is “systemically enhanced”. In addition, the “biomass yield of corn versus untreated” value in data set [7] (FIG. 2A) is reported as “significantly higher yields”. The “grain yield of corn versus untreated” value in data set [7] (FIG. 2B) is on record as “significantly higher yields”. Moreover, in data set [8], the “squash yield (weights of fruit/ac)” value is listed as “systemically enhanced”.
